This test deals with JIMT-1 xenograft. In words: In vivo efficacy, JIMT-1 tumor xenograft (tumor volume, body weight). The note with it: control conjugate, 5 mg/kg i.v.; BALB/c nu/nu mice. On the procedure:
T-20-AB2.1, T-23-AB2.1, T-Int-102-D1-5 AB2.1, and T-Int0112-AB2.1 were prepared with 20 mg scale reaction. After purification by HIC column, final samples were concentrated to 5-10 mg/ml protein.
In vivo efficacy of T-20-AB2.1 and T-23-AB2.1 was measured by tumor xenograft studies in mice. Female BALB/c nu/nu were injected subcutaneously in the right flank with suspensions of 5×10^6 of JIMT-1 cells respectively in PBS. Mice were randomized into study groups when tumors reached approximately 150 mm^3. T-DM1 (5 mg/kg) and T-20-AB2.1 and T-23-AB2.1 conjugates (0.3 mg/kg, QW X^4) were given i.v. All treatment groups consisted of 6 to 10 animals per group, and tumor size was monitored twice weekly using caliper measurement. The tumor mass was calculated as volume=(width×width×length)/2.

For T-DM1, the “activity in JIMT-1 xenograft versus the conjugates of the disclosure” value is “less active”.

Values taken from patent publication US20250121087A1, “ANTIBODY-DRUG CONJUGATES COMPRISING ANTI-B7-H3 ANTIBODIES” (priority 2020, published 2025).
